Structures can show the parent of a compound that is named as a salt. Where two headings read alike, the source gives them in different places.
Experiments:
HCV NS3 protease = HCV NS3 protease inhibitor EC50 (background statement); assay type: cell-based
HCV genotype-1 [1] = experiment: Clinical study with treatment-naive patients: monotherapy 14 days, then triple combination with P+R 14 days; conditions: for VL rebound during treatment: first 14 days of monotherapy, all dose groups
Description: Plasma HCV-RNA levels were measured with Roche COBAS® TaqMan® assay (LLOQ 25 IU/m L). After Day 28, at the discretion of the investigator, patients could continue to receive standard of care treatment, i.e., P+R.

HCV genotype-1 [2] = conditions: for Below Limit of Quantification at D 28 (number of patients) / Below Limit of Quantification at D 28 (percent of patients): less than 25 IU per ml of serum; for Virologic rebound during treatment (patients with rebound/patients in group) / Virologic rebound during treatment: first 28 days
Description: All patients were monitored for safety and tolerability of study drugs. The primary endpoint was a ≧2 log 10 reduction in HCV viral load (VL) from baseline at any time up to Day 28. Plasma HCV-RNA levels were measured using the Roche COBAS® TaqMan® assay (LLOQ 25 IU/mL). The treatment experienced patients in this study included P+R null responders and partial respoders. After Day 28, at the discretion of the investigator, patients could continue to receive standard of care treatment, i.e., P+R.

[3] = Trough plasma concentration of Compound (1) with or without two-fold first loading dose; assay type: in vivo, human; conditions: TE patients; for Mean steady state trough of Days 10-29 / Geometric mean trough plasma concentration: + P+R
Excerpt: Trough (pre-dose) plasma samples were collected on Days 2, 3, 4, 6, 10, 14, 21, 28 and 29 following the initiation of combination treatment on Day 1.

[4] = 240 mg QD SGC with first 480 mg loading dose, Day 3
[5] = 240 mg QD SGC with first 480 mg loading dose, Day 4
[6] = 240 mg QD SGC with first 480 mg loading dose, Day 6
[7] = 240 mg QD solution (PiB) without loading dose, Day 3
[8] = 240 mg QD solution (PiB) without loading dose, Day 4
[9] = 240 mg QD solution (PiB) without loading dose, Day 6

Compound: C=C[C@@H]1C[C@]1(NC(=O)[C@@H]1C[C@H](Oc2cc(-c3csc(NC(=O)C(C)C)n3)nc3c(Br)c(OC)ccc23)CN1C(=O)[C@@H](NC(=O)OC1CCCC1)C(C)(C)C)C(=O)O [Compound (1) sodium salt]
- Serious AE (HCV genotype-1 [1]; 20 mg dose cohort, 6 days after initiating P+R): One serious AE, asthenia
- Discontinuation of treatment due to adverse events (HCV genotype-1 [1]; during monotherapy): No pts discontinued treatment
- VL rebound during treatment (HCV genotype-1 [1]): a majority of patients
- VL rebound during treatment (HCV genotype-1 [1]; listed as Compound (1) (sodium salt)): a majority of the patients
- Tolerability (HCV genotype-1 [1]; treatment-naive pts, 20-240 mg qd, monotherapy 14 days then + P+R 14 days): well tolerated
- Maximal decline D 1-14 (HCV genotype-1 [2]; 48 mg QD, N = 6, + P+R): 4.4 ×log10
- Maximal decline D 1-14 (HCV genotype-1 [2]; 120 mg QD, N = 7, + P+R): 4.5 ×log10
- Mean Decline at D 14 (HCV genotype-1 [2]; 120 mg QD, N = 7, + P+R): 4.3 ×log10
- Virologic rebound during treatment (HCV genotype-1 [2]; 240 mg qd + P+R, listed as Compound (1) (sodium salt)): no rebound
- Serious or severe adverse events (HCV genotype-1 [2]; 48-240 mg qd + P+R, 28 days): no serious or severe adverse events
- Discontinuation of treatment due to an AE (HCV genotype-1 [2]; AE: anxiety): One subject discontinued treatment
- Tolerability (HCV genotype-1 [2]; treatment-experienced pts, 48-240 mg qd + P+R, 28 days): well tolerated

Compound: C=C[C@@H]1C[C@]1(NC(=O)[C@@H]1C[C@H](Oc2cc(-c3csc(NC(=O)C(C)C)n3)nc3c(Br)c(OC)ccc23)CN1C(=O)[C@@H](NC(=O)OC1CCCC1)C(C)(C)C)C(=O)O [Compound (1)]
- Virologic rebound during treatment (HCV genotype-1 [2]; 240 mg qd + P+R): No rebound
- Mean steady state trough of Days 10-29 ([3]; 240 mg QD SGC with first 480 mg loading dose): 5,774
- Geometric mean trough plasma concentration [3, 5]: 5,640
- Geometric mean trough plasma concentration [3, 6]: 7,060
- Geometric mean trough plasma concentration ([3]; 240 mg QD SGC with first 480 mg loading dose, Day 10): 6,580
- Geometric mean trough plasma concentration ([3]; 240 mg QD SGC with first 480 mg loading dose, Day 14): 5,590
- Geometric mean trough plasma concentration ([3]; 240 mg QD SGC with first 480 mg loading dose, Day 21): 5,410
- Geometric mean trough plasma concentration ([3]; 240 mg QD SGC with first 480 mg loading dose, Day 28): 5,960
- % of mean steady state trough of Days 10-29 [3, 4]: 81.2%
- % of mean steady state trough of Days 10-29 [3, 5]: 97.7%
- % of mean steady state trough of Days 10-29 [3, 6]: 122.3%
- Geometric mean trough plasma concentration ([3]; 240 mg QD soft gelatin capsules (SGC) with a first 480 mg loading dose, Day 2): 3,470
- Geometric mean trough plasma concentration ([3]; 240 mg QD solution (PiB) without a first 480 mg loading dose, Day 2): 710
- Geometric mean trough plasma concentration [3, 8]: 2,420
- Geometric mean trough plasma concentration [3, 9]: 2,950
- Geometric mean trough plasma concentration ([3]; 240 mg QD solution (PiB) without loading dose, Day 10): 2,930
- Geometric mean trough plasma concentration ([3]; 240 mg QD solution (PiB) without loading dose, Day 14): 2,850
- % of mean steady state trough of Days 10-29 [3, 7]: 49.2%
- % of mean steady state trough of Days 10-29 [3, 9]: 87.4%
